Measured values: patent publication US20120115827A1, “3-AMINOBENZAMIDE COMPOUNDS AND VANILLOID RECEPTOR SUBTYPE 1 (VR1) INHIBITORS” (Japan Tobacco Inc., priority 2004, published 2012)
pIC50: −log10 of the molar value.

What follows are compounds tested against T1, human VR1 (Homo sapiens, UniProt Q8NER1) (assay: Inhibition of Ca2+ entry in cells caused by proton (VR1 agonist)). Settings: Rat glioma (C6BU1) cells stably expressing human VR1; proton stimulation to pH 5.5; Fura 2-AM fluorescence; read-out: In vitro IC50.
T1 construct: expressed in transfected cells
T1 sequence (Q8NER1 whole entry): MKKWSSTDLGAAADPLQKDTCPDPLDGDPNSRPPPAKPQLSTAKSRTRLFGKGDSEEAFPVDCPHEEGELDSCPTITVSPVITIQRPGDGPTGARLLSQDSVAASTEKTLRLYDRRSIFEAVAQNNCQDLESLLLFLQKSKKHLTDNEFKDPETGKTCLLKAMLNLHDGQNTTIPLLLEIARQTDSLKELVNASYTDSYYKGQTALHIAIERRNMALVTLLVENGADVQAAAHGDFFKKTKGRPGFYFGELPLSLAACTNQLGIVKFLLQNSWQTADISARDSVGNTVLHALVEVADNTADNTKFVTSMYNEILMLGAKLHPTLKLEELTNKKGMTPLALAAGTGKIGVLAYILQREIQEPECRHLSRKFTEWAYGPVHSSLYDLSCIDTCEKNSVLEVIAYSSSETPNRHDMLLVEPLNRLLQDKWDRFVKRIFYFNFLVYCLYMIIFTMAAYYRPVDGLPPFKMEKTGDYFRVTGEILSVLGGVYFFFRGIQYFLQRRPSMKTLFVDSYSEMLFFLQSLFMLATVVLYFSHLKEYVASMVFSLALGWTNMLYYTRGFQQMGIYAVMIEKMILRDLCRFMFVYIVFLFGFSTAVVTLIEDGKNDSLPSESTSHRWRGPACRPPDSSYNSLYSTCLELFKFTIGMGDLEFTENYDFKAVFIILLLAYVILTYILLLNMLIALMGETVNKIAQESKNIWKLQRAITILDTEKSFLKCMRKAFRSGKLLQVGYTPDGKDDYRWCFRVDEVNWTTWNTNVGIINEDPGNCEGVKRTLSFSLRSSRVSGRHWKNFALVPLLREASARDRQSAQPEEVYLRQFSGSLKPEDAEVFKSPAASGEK
Format: cell-based
Description: The assay for evaluation of VR1 inhibition by the inventive compounds will be described below. The assay was intended to evaluate in vitro inhibition of Ca^2+ entry in cells caused by proton, one of the VR1 agonists.
Rat glioma (C6BU1) cells stably expressing human VR1 were suspended in 20 mM MES buffer (at pH 6.8, contg. 20 mM 2-morpholinoethanesulfonate (referred to as MES hereinafter), 115 mM NaCl, 5 mM KCl, 1 mM MgCl2 and 14 mM D-glucose) to make a cell density of 1×10^6 cells/mL. A fluorescent dye, Fura 2-AM solution (Dojindo Corporate, Cat. No. 343-05401) was added to the suspension to make a 5 μM concentration thereof. Further, Pluronic F-127 (Wako Pure Chemical Industries, Ltd., Cat. No. P6866) was added to make a 0.1% content thereof. Then, the suspension was incubated at 37° C. for 30 min. The cells were harvested and washed three times with 20 mM MES buffer. The cells were suspended again to make a cell density of 5×10^5 cells/mL. A 500-μL portion of the suspension was taken with a cuvette (MC MEDICAL, INC., Cat. No. SSR3121), to which […] MES buffer containing 250 mM CaCl2 was added to incorporate Ca^2+ into the cells. At the same time, 5 μL of a test compound solution (in a range of 100 μM to 10 nM in DMSO) was also added to provide a final concentration thereof in a range of 1 μM to 0.1 nM. Alternatively, 5 μl of DMSO was added as control to provide a final concentration of 1% DMSO. The suspension was set in an intracellular ionometer (CAF-110; JASCO) 10 min after those additions. The cells were stimulated with protons by addition of 60 μL of 20 mM MES buffer at pH 1.1 to the suspension to set its pH at 5.5. The activity of the test compound was determined as a difference between the minimum of fluorescence intensity before agonist stimulation and its maximum after the stimulation. The value of IC50 was derived from percentage of inhibition by the test compound compared with the control.

Compound | pIC50
CN(C)C(=O)CN(c1cc(C(=O)Nc2ccc(C(C)(C)C)cc2)ccc1Cl)c1ncccc1Cl [Example 49, 4-chloro-3-[N-(3-chloropyridin-2-yl)-N—(N,N-dimethylcarbamoylmethyl)amino]-N-(4-tert-butylphenyl)-benzamide] | 6.00 to 7.00
COc1c(C(=O)Nc2ccc(C(C)(C)C)cc2)cccc1N(C)c1ncccc1Cl [Example 26, N-(4-tert-butylphenyl)-3-[N-(3-chloropyridin-2-yl)-N-methyl]amino-2-methoxybenzamide] | ≥ 7.00
COc1ccc(C(=O)Nc2ccc(OCC(C)C)cc2)cc1N(CCO)c1ncccc1Cl [Example 50, 3-[N-(3-chloropyridin-2-yl)-N-(2-hydroxyethyl)amino]-N-(4-isobutyloxyphenyl)-4-methoxy-benzamide] | ≥ 7.00
CN(c1cc(Cl)cc(C(=O)Nc2ccc(C(C)(C)C)cc2)c1)c1ncccc1Cl [Example 23, N-(4-tert-butylphenyl)-5-chloro-3-[N-(3-chloropyridin-2-yl)-N-methyl]aminobenzamide] | ≥ 7.00
CN(c1cc(C(=O)Nc2ccc(C(C)(C)C)cc2)ccc1O)c1ncccc1Cl [Example 15, N-(4-tert-butylphenyl)-3-[N-(3-chloropyridin-2-yl)-N-methyl-amino]-4-hydroxybenzamide] | ≥ 7.00
CC(C)(C)c1ccc(NC(=O)c2ccc(Cl)c(N(CCO)c3ncccc3Cl)c2)cc1 [Example 30, N-(4-tert-butylphenyl)-4-chloro-3-[N-(3-chloropyridin-2-yl)-N-(2-hydroxyethyl)amino]benzamide] | ≥ 7.00
CC(C)Oc1ccc(C(=O)Nc2ccc(C(C)(C)C)cc2)cc1N(C)c1ncccc1Cl [Example 16, N-(4-tert-butylphenyl)-3-[N-(3-chloropyridin-2-yl)-N-methyl-amino]-4-isopropoxybenzamide] | ≥ 7.00
Cc1ccc(C(=O)Nc2ccc(C(F)(F)F)cc2)cc1N(CC(N)=O)c1ncccc1Cl [Example 63, 3-[N-(3-chloropyridin-2-yl)-N-(carbamoylmethyl)amino]-4-methyl-N-(4-trifluoromethylphenyl)-benzamide] | ≥ 7.00
CN(c1cccc(C(=O)Nc2ccc(C(C)(C)C)cc2)c1O)c1ncccc1Cl [Example 25, N-(4-tert-butylphenyl)-3-[N-(3-chloropyridin-2-yl)-N-methyl]amino-2-hydroxybenzamide] | 6.00 to 7.00
CN(c1cc(C(=O)Nc2ccc(C(C)(C)C)cc2)ccc1OCC(N)=O)c1ncccc1Cl [Example 20, N-(4-tert-butylphenyl)-4-carbamoylmethyloxy-3-[N-(3-chloropyridin-2-yl)-N-methyl-amino]benzamide] | ≥ 7.00
CCOC(=O)c1cnc(N(C)c2cc(C(=O)Nc3ccc(C(C)(C)C)cc3)ccc2Cl)c(Cl)c1 [Example 73, Ethyl 6-{[5-(4-tert-butylphenylcarbamoyl)-2-chlorophenyl]-methyl-amino}-5-chloronicotinate] | 6.00 to 7.00
CN(c1cc(C(=O)Nc2ccc(C(C)(C)C)cc2)ccc1Cl)c1ncc(CO)cc1Cl [Example 78, N-(4-tert-butylphenyl)-4-chloro-3-[N-(3-chloro-5-hydroxymethylpyridin-2-yl)-N-methyl-amino]benzamide] | ≥ 7.00
NC(=O)CN(c1cc(C(=O)Nc2ccc(C(F)(F)F)cc2)ccc1Cl)c1ncccc1Cl [Example 59, 4-chloro-3-[N-(3-chloropyridin-2-yl)-N-(carbamoylmethyl)amino]-N-(4-trifluoromethylphenyl)-benzamide] | ≥ 7.00
CN(c1cccc(C(=O)Nc2ccc(C(C)(C)C)cc2)c1)c1ccccc1Cl [Example 33, N-(4-tert-butylphenyl)-3-[N-(2-chlorophenyl)-N-methyl-amino]benzamide] | ≥ 7.00
Cc1ccc(C(=O)Nc2ccc(OC(F)(F)F)cc2)cc1N(CC(N)=O)c1ncccc1Cl [Example 64, 3-[N-(3-chloropyridin-2-yl)-N-(carbamoylmethyl)amino]-4-methyl-N-(4-trifluoromethoxyphenyl)-benzamide] | ≥ 7.00
NC(=O)CN(c1ccc(Cl)cn1)c1cc(C(=O)Nc2ccc(C(F)(F)F)cc2)ccc1Cl [Example 70] | ≥ 7.00
